Measured values from patent US5202315A, “Cephalosporin compounds” (Lucky, Ltd., priority 1989, dated 1993).
Values after ≈ are worked out from the molar mass of the structure shown. Like-named read-outs stand apart in the source and are kept apart here.

Tests used:
[1] = In-vivo absorbency (plasma concentrations & pharmacokinetic parameters); design: species or system SD rat (male); conditions: plasma, SD male rat, iv 20 mg/kg; for half-life: rat, iv, 20 mg/kg
Description: The blood samples from the femoral vein of the rats were taken every hour after administration, and analyzed by bio-assay(agar well method).
Tested animal: SD male Rat (220~340 g)

[2] = as above; design: species or system SD rat (male); conditions: plasma, SD male rat, iv 20 mg/kg, read-out: Plasma Conc.
Pseudomonas = assay: Antibacterial activity; assay type: cell-based; conditions: statement in words
[3] = test system: Acinetobacter calcoaceticus ATCC 15473; assay: Antibacterial activity, MIC; assay type: cell-based; conditions: ATCC15473, ATCC 15473, agar two-fold dilution, 37° C., 20 hours, read-out: MIC
In short: (§1)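 Agar two-fold dilution method: compound serially diluted two-fold in Mueller-Hinton agar, spotted with 2 μl of a 10^7 CFU/ml inoculum of each standard strain, then incubated at 37 °C for 20 h.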

[4] = test system: Staphylococcus epidermidis ATCC 12228; assay: Antibacterial activity, MIC; assay type: cell-based; conditions: ATCC12228, ATCC 12228, agar two-fold dilution, 37° C., 20 hours, read-out: MIC
In short: as §1

[5] = test system: Providencia rettgeri ATCC 9250; assay: Antibacterial activity, MIC; assay type: cell-based; conditions: ATCC9250, agar two-fold dilution, 37° C., 20 hours
In short: as §1

[6] = test system: Micrococcus luteus ATCC 9341; assay: Antibacterial activity, MIC; assay type: cell-based; conditions: ATCC9341, ATCC 9341, agar two-fold dilution, 37° C., 20 hours, read-out: MIC
In short: as §1

[7] = test system: Citrobacter freundii ATCC 8090; assay: Antibacterial activity, MIC; assay type: cell-based; conditions: ATCC8090, ATCC 8090, agar two-fold dilution, 37° C., 20 hours, read-out: MIC
In short: as §1

[8] = test system: Pseudomonas aeruginosa ATCC 10145; assay: Antibacterial activity, MIC; assay type: cell-based; conditions: ATCC10145, ATCC 10145, agar two-fold dilution, 37° C., 20 hours, read-out: MIC
In short: as §1

[9] = test system: Proteus mirabilis ATCC 25933; assay: Antibacterial activity, MIC; assay type: cell-based; conditions: ATCC25933, ATCC 25933, agar two-fold dilution, 37° C., 20 hours, read-out: MIC
In short: as §1

[10] = test system: Morganella morganii ATCC 8076h; assay: Antibacterial activity, MIC; assay type: cell-based; conditions: ATCC8076H, agar two-fold dilution, 37° C., 20 hours
In short: as §1

[11] = test system: Shigella flexneri ATCC 11836; assay: Antibacterial activity, MIC; assay type: cell-based; conditions: ATCC11836, agar two-fold dilution, 37° C., 20 hours
In short: as §1

[12] = test system: Salmonella typhimurium ATCC 14028; assay: Antibacterial activity, MIC; assay type: cell-based; conditions: Salmonella enterica; ATCC 14028; agar two-fold dilution, 37° C., 20 hours; read-out: MIC
In short: as §1

[13] = test system: Pseudomonas aeruginosa ATCC 27853; assay: Antibacterial activity, MIC; assay type: cell-based; conditions: ATCC27853, ATCC 27853, agar two-fold dilution, 37° C., 20 hours, read-out: MIC
In short: as §1

[14] = test system: Enterobacter cloacae ATCC 27508; assay: Antibacterial activity, MIC; assay type: cell-based; conditions: ATCC27508, ATCC 27508, agar two-fold dilution, 37° C., 20 hours, read-out: MIC
In short: as §1

[15] = test system: Pseudomonas aeruginosa ATCC 25619; assay: Antibacterial activity, MIC; assay type: cell-based; conditions: ATCC25619, ATCC 25619, agar two-fold dilution, 37° C., 20 hours, read-out: MIC
In short: as §1

[16] = test system: Escherichia coli ATCC 10536; assay: Antibacterial activity, MIC; assay type: cell-based; conditions: ATCC10536, agar two-fold dilution, 37° C., 20 hours
In short: as §1

[17] = test system: Enterobacter aerogenes ATCC 29751; assay: Antibacterial activity, MIC; assay type: cell-based; conditions: Klebsiella aerogenes, ATCC29751; ATCC 29751; agar two-fold dilution, 37° C., 20 hours; read-out: MIC
In short: as §1

[18] = test system: Klebsiella pneumoniae ATCC 10031; assay: Antibacterial activity, MIC; assay type: cell-based; conditions: ATCC10031, ATCC 10031, agar two-fold dilution, 37° C., 20 hours, read-out: MIC
In short: as §1

[19] = test system: Proteus vulgaris ATCC 6059; assay: Antibacterial activity, MIC; assay type: cell-based; conditions: ATCC6059, ATCC 6059, agar two-fold dilution, 37° C., 20 hours, read-out: MIC
In short: as §1

[20] = test system: Bacillus cereus ATCC 11778; assay: Antibacterial activity, MIC; assay type: cell-based; conditions: ATCC11778, ATCC 11778, agar two-fold dilution, 37° C., 20 hours, read-out: MIC
In short: as §1

[21] = test system: Bacillus megaterium ATCC 9885; assay: Antibacterial activity, MIC; assay type: cell-based; conditions: Priestia megaterium, ATCC9885; ATCC 9885; agar two-fold dilution, 37° C., 20 hours; read-out: MIC
In short: as §1

[22] = test system: Streptococcus faecalis ATCC 29212; assay: Antibacterial activity, MIC; assay type: cell-based; conditions: Enterococcus faecalis, ATCC29212; ATCC 29212; agar two-fold dilution, 37° C., 20 hours; read-out: MIC
In short: as §1

[23] = test system: Shigella sonnei ATCC 11060; assay: Antibacterial activity, MIC; assay type: cell-based; conditions: ATCC11060, ATCC 11060, agar two-fold dilution, 37° C., 20 hours, read-out: MIC
In short: as §1

[24] = test system: Staphylococcus aureus ATCC 10537; assay: Antibacterial activity, MIC; assay type: cell-based; conditions: ATCC10537, ATCC 10537, agar two-fold dilution, 37° C., 20 hours, read-out: MIC
In short: as §1

[25] = test system: Serratia marcescens ATCC 27117; assay: Antibacterial activity, MIC; assay type: cell-based; conditions: ATCC27117, ATCC 27117, agar two-fold dilution, 37° C., 20 hours, read-out: MIC
In short: as §1

[26] = test system: Staphylococcus aureus ATCC 6538p; assay: Antibacterial activity, MIC; assay type: cell-based; conditions: ATCC6538P, ATCC 6538p, agar two-fold dilution, 37° C., 20 hours, read-out: MIC
In short: as §1

[27] = test system: Escherichia coli ATCC 25922; assay: Antibacterial activity, MIC; assay type: cell-based; conditions: ATCC25922, agar two-fold dilution, 37° C., 20 hours
In short: as §1

CC(C)(O/N=C(\C(=O)NC1C(=O)N2C(C(=O)[O-])=C(CSc3nc(N)cc(N)[n+]3N)CS[C@H]12)c1csc(N)n1)C(=O)O (stereo partly shown) [Compound I-15, 7-[(Z)-2-(2-aminothiazol-4-yl)-2-(2-carboxyprop-2-oxyimino)acetamido]-3-(1,4,6-triaminopyrimidinium-2-yl) thiomethyl-3-cephem-4-carboxylate]
concentration at 1 h ([1]; 60 min, read-out: Plasma Conc.): 2400 ng/mL
concentration at 2 h ([1]; 120 min, read-out: Plasma Conc.): 600 ng/mL
AUC ([1]; two compartment model): 43400 ng·h/mL
half-life ([1]; two compartment model, read-out: T1/2 (α)): 3 min
half-life ([1]; two compartment model, read-out: T1/2 (β)): 29 min
concentration at 1 min ([2]; 1 min): 148000 ng/mL
concentration at 2.5 min ([2]; 2.5 min): 104000 ng/mL
concentration at 5 min ([2]; 5 min): 71000 ng/mL
concentration at 10 min ([2]; 10 min): 53000 ng/mL
concentration at 20 min ([2]; 20 min): 22000 ng/mL
concentration at 40 min ([2]; 40 min): 10000 ng/mL
antibacterial activities, especially against Pseudomonas (Pseudomonas): excellent
MIC [3]: 2 µg/mL (≈ 3.2 µM)
MIC [4]: 2 µg/mL (≈ 3.2 µM)
MIC [5]: ≤ 0.008 µg/mL
MIC [6]: 0.25 µg/mL (≈ 0.4 µM)
MIC [7]: 0.063 µg/mL (≈ 0.101 µM)
MIC [8]: 1 µg/mL (≈ 1.6 µM)
MIC [9]: 0.016 µg/mL (≈ 0.0256 µM)
MIC [10]: ≤ 0.008 µg/mL
MIC [11]: 0.031 µg/mL (≈ 0.0496 µM)
MIC [12]: 0.13 µg/mL (≈ 0.208 µM)
MIC [13]: 1 µg/mL (≈ 1.6 µM)
MIC [14]: 0.016 µg/mL (≈ 0.0256 µM)
MIC [15]: 1 µg/mL (≈ 1.6 µM)
MIC [16]: 0.063 µg/mL (≈ 0.101 µM)
MIC [17]: 1 µg/mL (≈ 1.6 µM)
MIC [18]: 0.063 µg/mL (≈ 0.101 µM)
MIC [19]: 0.016 µg/mL (≈ 0.0256 µM)
MIC [20]: 64 µg/mL (≈ 102 µM)
MIC [21]: 0.5 µg/mL (≈ 0.8 µM)
MIC [22]: > 128 µg/mL
MIC [23]: 0.063 µg/mL (≈ 0.101 µM)
MIC [24]: 2 µg/mL (≈ 3.2 µM)
MIC [25]: 0.063 µg/mL (≈ 0.101 µM)
MIC [26]: 4 µg/mL (≈ 6.4 µM)
MIC [27]: 0.063 µg/mL (≈ 0.101 µM)
